The source of these data is ChEMBL document CHEMBL4138114, “Pharmacophore guided discovery of small-molecule interleukin 15 inhibitors” (Eur J Med Chem, 2017).

Structures are written as SMILES. Calls of active or inactive are those of the source. The calls are words filed in the database; no cut-off is given here.

Common to all, as to type: cell-based
In one data set the test system is PBMC. Kind of data set: Cytotoxicity against human PBMC cells up to 200 uM after 48 hrs by CellTiter 96 AQueous one solution cell proliferation assay.
Data set [1] has as its target T1, IL15-IL15 receptor (Homo sapiens) (UniProt P40933+Q13261). Kind of data set: Inhibition of IL-15 (unknown origin)/IL-15Ralpha interaction in human PBMC cells assessed as reduction of TNF-alpha synthesis preincubated for 30 mins followed by IL-15 addition measured after 48 hrs by ELISA. A general note: In an ELISA, binding on a coated surface is turned into a signal by an enzyme label.

For data set [2], the target named is T1, IL15-IL15 receptor (Homo sapiens). The data set is described as follows: Inhibition of IL-15 (unknown origin)/IL-15Ralpha interaction in human PBMC cells assessed as reduction of IL-17 synthesis preincubated for 30 mins followed by IL-15 addition measured after 48 hrs by ELISA.

T1 sequence (P40933 49-162 limits assumed): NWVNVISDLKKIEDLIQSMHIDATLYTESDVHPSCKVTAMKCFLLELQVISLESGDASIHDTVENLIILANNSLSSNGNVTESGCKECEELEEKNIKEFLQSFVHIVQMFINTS
T1 sequence (Q13261 31-267 partner limits assumed): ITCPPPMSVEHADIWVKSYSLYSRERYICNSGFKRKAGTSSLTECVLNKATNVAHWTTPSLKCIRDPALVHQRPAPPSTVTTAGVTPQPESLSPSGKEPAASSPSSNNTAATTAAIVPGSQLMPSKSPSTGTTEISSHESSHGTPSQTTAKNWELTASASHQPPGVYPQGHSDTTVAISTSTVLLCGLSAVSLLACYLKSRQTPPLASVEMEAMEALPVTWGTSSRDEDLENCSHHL

With `NCCC(=O)NCCc1c[nH]cn1` [CARCININE], in the data set on PBMC, the Activity entry is listed as “Non-Toxic”. The “TNF-alpha synthesis inhibition (active/not active)” value in data set [1] is “Active”. In addition, the inhibition entry in data set [2] is “Active”.

`COc1ccc(S(=O)(=O)Nc2cccc(C(=O)O)c2)cc1C(=O)O`: the Activity entry with PBMC is given as “Non-Toxic”. In data set [1], the “TNF-alpha synthesis inhibition (active/not active)” value was “inactive”. Moreover, the inhibition result in data set [2] is “inactive”.

Regarding `COc1ccc(-n2nnnc2S(=O)(=O)Cc2ccc(C(=O)O)cc2)cc1`, in the data set with PBMC, the Activity entry is listed as “Non-Toxic”. For the same compound, in data set [1], the “TNF-alpha synthesis inhibition (active/not active)” value is “inactive”. Further, in data set [2], the inhibition entry is “inactive”.

On to `Cc1nnc(SCC2=C(C(=O)O)N3C(=O)[C@@H](NC(=O)Cn4cnnn4)[C@H]3SC2)s1` [CEFAZOLIN], for which, in the data set with PBMC, the Activity result is on record as “Non-Toxic”. The “TNF-alpha synthesis inhibition (active/not active)” value in data set [1] is “Active”. In data set [2], the inhibition result is “Active”.

Consider `NC(CCCCCCC(N)C(=O)O)C(=O)O` (configuration not stated), for which, in the data set with PBMC, the Activity result was “Non-Toxic”. In addition, the “TNF-alpha synthesis inhibition (active/not active)” value in data set [1] was “Active”. In addition, in data set [2], the inhibition result was “Active”.

As for `O=C(O)c1ccc(CNC(=O)C2C3CCC(C3)C2C(=O)O)cc1` (configuration not stated), the Activity entry with PBMC is “Non-Toxic”. The “TNF-alpha synthesis inhibition (active/not active)” value in data set [1] is “Active”. Besides, the inhibition entry in data set [2] was “Active”.

With `CCC(=O)Nc1ccc(Cc2ccc(NC(=O)CC)c(C(=O)O)c2)cc1C(=O)O`, the Activity entry in the data set on PBMC is “Non-Toxic”. For the same compound, the “TNF-alpha synthesis inhibition (active/not active)” value in data set [1] is “inactive”. Also, the inhibition entry in data set [2] was “inactive”.

As to `C/C(C/C(C)=N/N=C(N)N)=N\N=C(N)N`, the Activity result in the data set with PBMC is reported as “Non-Toxic”. Moreover, the “TNF-alpha synthesis inhibition (active/not active)” value in data set [1] was “Active”. Further, in data set [2], the inhibition result is “Active”.

As for `O=C(O)c1ccc(CSc2nnnn2-c2ccc(F)cc2)cc1`, in the data set with PBMC, the Activity result is reported as “Non-Toxic”. In data set [1], the “TNF-alpha synthesis inhibition (active/not active)” value was “Active”. Also, the inhibition result in data set [2] is “Active”.

For the compound `O=C(O)CCC(=O)Nc1cc(NC(=O)CCC(=O)O)cc(C(=O)O)c1`, in the data set with PBMC, the Activity entry was “Non-Toxic”. In addition, the “TNF-alpha synthesis inhibition (active/not active)” value in data set [1] was “Active”. In data set [2], the inhibition result was “Active”.

On to `COC(=O)CCC(=O)NCc1ccc(C(=O)OC)cc1`, for which the Activity result with PBMC is listed as “Non-Toxic”. For the same compound, the “TNF-alpha synthesis inhibition (active/not active)” value in data set [1] is “Active”. In addition, the inhibition entry in data set [2] is “Active”.

For the compound `O=C(O)c1ccc(CNC(=O)C2CCCCC2C(=O)O)cc1` (configuration not stated), the Activity entry with PBMC was “Non-Toxic”. For the same compound, the “TNF-alpha synthesis inhibition (active/not active)” value in data set [1] is “Active”. For the same compound, the inhibition entry in data set [2] is “Active”.

For the compound `NC(N)=NC(=O)CNCC(=O)N=C(N)N`, the Activity result in the data set on PBMC is reported as “Non-Toxic”. The “TNF-alpha synthesis inhibition (active/not active)” value in data set [1] was “Active”. Also, in data set [2], the inhibition entry is “Active”.

For `O=C(O)Cc1ccc(NC(=O)C2CC=CCC2C(=O)O)cc1` (configuration not stated), in the data set with PBMC, the Activity entry was “Non-Toxic”. The “TNF-alpha synthesis inhibition (active/not active)” value in data set [1] is “inactive”. Moreover, in data set [2], the inhibition entry is “inactive”.

`O=C(O)CCC(=O)NCc1ccc(C(=O)O)cc1`: in the data set with PBMC, the Activity entry was “Non-Toxic”. The “TNF-alpha synthesis inhibition (active/not active)” value in data set [1] is “inactive”. Further, in data set [2], the inhibition entry was “inactive”.

With `NCCC(=O)N[C@@H](Cc1cnc[nH]1)C(=O)O` [CARNOSINE], the Activity entry in the data set with PBMC is “Non-Toxic”.

`NCCC(=O)N[C@@H](Cc1c[nH]cn1)C(=O)O`: the “TNF-alpha synthesis inhibition (active/not active)” value in data set [1] was “inactive”. The inhibition entry in data set [2] is “inactive”.

With `O=C(O)c1ccc(CNC(=O)C2CC=CCC2C(=O)O)cc1` (configuration not stated), the Activity result in the data set on PBMC is “Non-Toxic”. Besides, in data set [1], the “TNF-alpha synthesis inhibition (active/not active)” value is “inactive”. Moreover, the inhibition entry in data set [2] was “inactive”.

On to `COC(=O)c1ccc(O)c(C)c1O`, for which, in the data set with PBMC, the Activity result is on record as “Non-Toxic”. Moreover, the “TNF-alpha synthesis inhibition (active/not active)” value in data set [1] was “Active”. Further, in data set [2], the inhibition entry was “Active”.

With `O=C(O)c1ccc(CSc2nnnn2C2CCCCC2)cc1`, the Activity entry in the data set with PBMC is given as “Non-Toxic”. In addition, the “TNF-alpha synthesis inhibition (active/not active)” value in data set [1] is “inactive”. The inhibition result in data set [2] was “inactive”.
